Data set [1] concerns Balb/c mice. As to the kind of experiment: Measurement of liver fatigue (serum GOT, GPT, liver TBARS) after water immersion and sleep disturbance. To be noted: 8 mg per kilogram of body weight orally once daily during two days of water immersion. The data set is classed as in vivo. On the procedure:
The second test is measurement of liver fatigue. This is described in detail below in Example 2. […] In a liver of this model, GOT and GPT levels increased, compared with those of a normally-reared group. GOT (glutamic oxalacetic transaminase) and GPT (glutamic pyruvic transaminase), which are enzymes present in hepatic cells, are known to escape into blood when hepatic cells are damaged. Therefore, a level of damage on the liver is determined by measuring GOT and GPT in blood. […] It is inferred that the long-term general fatigue condition caused alteration in liver function, disruption of oxygen reduction system balance, and the like to result in accumulation of lipid peroxide. This is considered to support the fact that this model is an organ fatigue model.
That is to say, since this animal model is also an organ fatigue model, anti-fatigue action against organ fatigue would be confirmed if it is observed that administration of the test substance, for instance, returns a changed organ fatigue marker, such as GOT, GPT, and TBARS mentioned above, to a normal level and reduces change in the organ markers. Such anti-fatigue action is considered to regulate overall activity of internal organs to condition metabolism, thereby being involved in reduction of physical and mental fatigue stress, maintenance of energy, improvement in endurance, and the like.
Effect of andrographolide on fatigue from water immersion and sleep disturbance was examined using a partially modified method of Tanaka et al. (Neuroscience Let. 352, 159-162, 2003). […] Blood serum was separated from the blood, and GOT (glutamic oxalacetic transaminase) and GPT (glutamic pyruvic transaminase) in the blood serum were measured with a small-sized biochemistry automatic analyzer (Model 7070, Hitachi High-Technologies Corporation). Further, levels of lipid peroxide from liver were measured as a level of TBARS (thiobarbituric acid reactive substances). […] Then, the TBARS levels were measured in accordance with the method of Ohkawa et al. Anal. Biochem. 95. […]

For data set [2], the system named is Sprague Dawley rats. Put plainly: Measurement of fatigue substance in blood (creatine kinase activity in blood plasma after forced exercise). The data set is classed as in vivo. To be noted: 2 mg per kilogram of body weight orally twice daily, five times in total, before forced exercise stress; FIG. 4. From the text: The fourth test is measurement of an amount of fatigue substance. This is described in detail below in Example 4. The test is to determine the effect of administration of the test substance on the amount of fatigue substance at the time when physical or mental stress is applied. Since the fatigue substances change according to the type, intensity, duration, or the like of fatigue that is applied, they are not clearly defined as an indicator, but creatine kinase in blood can be named as one of the candidate substances. Creatine kinase is an enzyme that catalyzes high-energy phosphoryl group transfer from creatine phosphate to ADP, and is considered to serve physiological functions of consuming creatine phosphate to supply ATP at the time of massive energy consumption, such as twitching of skeletal muscles upon instantaneous short-term exercise, in an in vivo energy system. […] It is therefore said that the level of damage on the muscle can be determined by measuring the creatine kinase activity in blood. […]
Muscle fatigue in a living body was determined using creatine kinase levels in blood as a reference index. […] Blood was taken out from a tale vein immediately after the exercise stress, and creatine kinase activity in blood plasma was measured with a biochemistry automatic analyzer (Model 7070, Hitachi High-Technologies Corporation) using an enzyme method. […]

Data set [3] can be described thus: Stability of andrographolide. The data set is classed as physicochemical. From the text: Thus andrographolide can be contained in the composition of the present invention without being processed or made into various forms according to the purpose by use of methods that are publicly known among people skilled in the art; for instance, it can be made into food, drink, seasoning, alcoholic beverages, functional food, pharmaceuticals, or the like. Especially the composition of the present invention can be made into pharmaceuticals for oral administration or food (e.g., functional food, dietary supplement, food with nutrient function, food for specified use, food for specified health use, nutritional supplement, health food, food for diet therapy, general health food, supplements).

Each structure is given as a SMILES string.

On to `C=C1CC[C@@H]2[C@](C)(CO)[C@H](O)CC[C@@]2(C)[C@@H]1C/C=C1/C(=O)OC[C@H]1O` [andrographolide], for which, in data set [1] (FIG. 2(A)), the “GOT level in the blood serum” value is “prevented from increasing”. Also, the “GPT level in the blood serum” value in data set [1] (FIG. 2(B)) is given as “prevented from increasing”. For the same compound, the “liver TBARS level” value in data set [1] (FIG. 2(C)) is given as “prevented from increasing”. In addition, the “creatine kinase activity in blood plasma” value in data set [2] is “decrease in creatine kinase activity was observed”. In addition, the “stability to pH, moisture, oxidation, light, heat” value in data set [3] was “high stability”.

The values are drawn from patent US8507547B2, “Anti-fatigue agents and oral compositions containing andrographolide as active ingredient” (Suntory Holdings Limited, priority 2007, dated 2013).
